{"source": "ChEMBL document CHEMBL1138104", "about": "“Isolation, structure elucidation, antioxidative and immunomodulatory properties of two novel dihydrocoumarins from Aloe vera” (Bioorg Med Chem Lett, 2006)", "key": {"[1]": {"system": "Radical scavenging activity", "assay": "Inhibition of superoxide radical scavenging activity", "type": "functional", "details": "dose or concentration not given here"}, "[2]": {"system": "Radical scavenging activity", "assay": "Inhibition of hydroxyl radical scavenging activity", "type": "functional", "details": "dose or concentration not given here"}, "[3]": {"system": "Peritoneal macrophage cell", "assay": "Enhancement of respiratory burst in rat peritoneal macrophage at 200 uM", "type": "functional, cell-based"}, "[4]": {"system": "Peritoneal macrophage cell", "assay": "Phagocytic function of rat peritoneal macrophage at 50-200 ug/ml", "type": "functional, cell-based"}}, "note": "Calls of active or inactive are those of the source. No cut-off for these calls is given here."}
{"molecule": "COc1cc(-c2c(O)cc3c(c2C)[C@@H](c2ccc(O)cc2)CC(=O)O3)oc(=O)c1", "values": [{"measurement": "inhibition", "setting": "[1]", "result": 42.3, "unit": "%"}, {"measurement": "inhibition", "setting": "[2]", "result": 43.7, "unit": "%"}, {"measurement": "Activity", "setting": "[3]", "result": "Active"}, {"measurement": "Activity", "setting": "[4]", "result": "Dose-dependent effect"}]}
{"molecule": "CCOC(=O)C[C@H](c1ccc(O)cc1)c1c(O)cc(O)c(-c2cc(OC)cc(=O)o2)c1C", "values": [{"measurement": "inhibition", "setting": "[1]", "result": 30.3, "unit": "%"}, {"measurement": "inhibition", "setting": "[2]", "result": 42.3, "unit": "%"}, {"measurement": "Activity", "setting": "[3]", "result": "inactive"}]}
